The results in this text go back to ChEMBL document CHEMBL1125759, “A new ionizable chromophore of 1,4-bis(alkylamino)benzo[g]phthalazine which interacts with DNA by intercalation” (J Med Chem, 1991).

One series relates to HeLa. Briefly: In vitro effective dose for its cytostatic activity against HeLa cells. The format is functional. The conditions noted are these: Homo sapiens, read-out: ED50 (the source's name).
Series [1] in a line: Compound was evaluated for the protonation constant by binding to DNA by intercalation in calf thymus. The format is ADME, Bos taurus. The conditions noted are these: cattle.

Structures are written as SMILES. Values after ≈ are worked out from the molar mass of the structure shown.

A word on the pKa: it is the negative logarithm of the acid dissociation constant. Low values mean a stronger acid or weaker base, high ones a weaker acid or stronger base. With `CN(C)CCCNc1nnc(NCCCN(C)C)c2cc3ccccc3cc12`, the EC50 in the series with HeLa is 1.25 µg/mL (≈ 3.28 µM). This molecule yielded a pKa in series [1] of 6.2.
As to `OCCCNc1nnc(NCCCO)c2cc3ccccc3cc12`, the EC50 in the series on HeLa came out at 25 µg/mL (≈ 76.6 µM). Also, the pKa in series [1] was found to be 8.3.
Take `COc1cc(NS(C)(=O)=O)ccc1Nc1c2ccccc2nc2ccccc12` [AMSACRINE]: the pKa in series [1] is 7.4.
In the case of `COCCCNc1nnc(NCCCOC)c2cc3ccccc3cc12`, the EC50 in the series with HeLa worked out at 10 µg/mL (≈ 28.2 µM). Further, the pKa in series [1] worked out at 8.3.
